Reference: US20030060499A1, “Novel therapeutic method” (priority 1998, published 2003)
Counter-ions that a name gives are not always drawn.

What was measured:
[1] = test system: putamen dopaminergic function; assay: 18 Fluoro-dopa PET scanning in five year, double-blind, multicentre study of ropinirole versus levodopa; type: in vivo, human; settings: for loss of putamen dopaminergic function (mean percent change): all patients (Hoehn & Yahr I-III), approximately two years between scans, average of both sides of the brain; for loss of putamen dopaminergic function (mean percent change) / decrease in putamen dopaminergic function (mean percent change): 18 Fluoro-dopa PET; for decrease in putamen dopaminergic function (mean percent change): subgroup of patients with Parkinson's disease for less than 2 years
Method: In an ongoing five year, double-blind, multicentre study, patients with early Pakinson's disease (Hoehn & Yahr I-III) were randomised to receive either ropinirole or levodopa. Of those enrolled, 37 patients were scanned using 18 Fluoro-dopa PET scanning within the first year and then approximately two years later to measure the gradual decline in basal ganglia dopaminergic function. […] The following endpoints were assessed:
1 Mean percent change in putamen dopaminergic function in all patients (Hoehn & Yahr I-III)
2 Mean percent change in putamen dopaminergic function in Parkinson's disease patients with symptoms present for under two years
3 Mean percent change in putamen dopaminergic function in Parkinson's disease patients with symptoms present for more than two years

Parkinson's patients = assay: three year, international, multicentre, double-blind comparative clinical trial of ropinirole versus bromocriptine; type: in vivo, human; settings: for patients considered responders (at least a 30% reduction from baseline in total motor examination score on the UPDRS): at the study's completion; for mean improvement in UPDRS motor score: three years
From the text: In a three year, international, multicentre, double-blind comparative clinical trial, Parkinson's patients were randomised to receive either ropinirole (n=168) or bromocriptine (n=167). 33% of patients received selegiline concomitantly with either ropinirole or bromocriptine. Of those enrolled, 214 patients completed the study (approximately 39% of patients treated with ropinirole and 33% of patients treated with bromocriptine withdrew from the study). Efficacy was based on the following:
1 Mean Unified Parkinson's Disease Rating Scale (UPDRS) Activities of Daily Living (ADL) score (Part II) at completion
2 Improvement in UPDRS total motor examination score (Part III)
3 Percentage of patients who were considered responders, defined as those with at least a 30% reduction from baseline in total motor examination score on the UPDRS
4 Average combined ADL and motor score at endpoint
5 The percentage of patients who required supplemental levodopa therapy.

[2] = patients who completed the study

| SMILES | loss of putamen dopaminergic function (mean percent change) [1] | decrease in putamen dopaminergic function (mean percent change) [1] | average improvement in the combined ADL and motor scores versus bromocriptine (Parkinson's patients; at endpoint, p=0.018) | patients considered responders (at least a 30% reduction from baseline in total motor examination score on the UPDRS) (Parkinson's patients) | incidence of dyskinesias (Parkinson's patients; human, in vivo, 3 years) | mean improvement in UPDRS ADL score versus bromocriptine (Parkinson's patients; patients who completed the study, p=0.009) | mean improvement in UPDRS motor score (Parkinson's patients; [2]) | patients who required supplemental levodopa (Parkinson's patients; three year trial) | difference between treatment groups in change in putamen dopaminergic function ([1]; patients with Parkinson's disease for more than two years, ropinirole versus levodopa) | incidence of dyskinesias (Parkinson's patients; three year trial) |
| --- | --- | --- | --- | --- | --- | --- | --- | --- | --- | --- |
| N[C@@H](Cc1ccc(O)c(O)c1)C(=O)O [levodopa] | 18% | 28% | – | – | – | – | – | – | – | – |
| CCCN(CCC)CCc1cccc2c1CC(=O)N2 [ropinirole, 4-[2-(di-n-propylamino)ethyl]-1,3-dihydro-2H-indolin-2-one hydrochlorid] | 13% | 14% | statistically significantly greater | 53% | 8% | statistically significantly mean improvement | 31% | 34% | no statistically significant difference | – |
| CC(C)C[C@H]1C(=O)N2CCC[C@H]2[C@]2(O)O[C@](NC(=O)[C@@H]3C=C4c5cccc6[nH]c(Br)c(c56)C[C@H]4N(C)C3)(C(C)C)C(=O)N12 [bromocriptine] | – | – | – | 42% | – | – | 22% | 42% | – | 7% |
